# Measured values: patent US20190381086A1, “INHIBITION OF NEDDYLATION USING GLYCYL-tRNA SYNTHETASE INHIBITORS” (The Scripps Research Institute, priority 2015, published 2019)
# Tests used:
# SK-MEL-28 = type: cell-based; details: SK-MEL-28, Melanoma
# RXF 393 = type: cell-based; details: RXF 393, Renal Cancer
# HT29 [1] = type: cell-based; details: HT29, Colon Cancer
# HT29 [2] = test: NCI 60 Cell One-Dose Screen; type: cell-based, human; details: HT29, Colon Cancer; single dose 10^-5 M
# HCT-15 [3] = test: NCI 60 Cell One-Dose Screen; type: cell-based, human; details: HCT-15, Colon Cancer; single dose 10^-5 M
# HOP-92 = test: NCI 60 Cell One-Dose Screen; type: cell-based, human; details: HOP-92, Non-Small Cell Lung Cancer; single dose 10^-5 M
# A549/ATCC = type: cell-based; details: Non-Small Cell Lung Cancer
# OVCAR-3 [4] = test: NCI 60 Cell One-Dose Screen; type: cell-based, human; details: OVCAR-3, Ovarian Cancer; single dose 10^-5 M
# T-47D = test: NCI 60 Cell One-Dose Screen; type: cell-based, human; details: Breast Cancer, single dose 10^-5 M
# OVCAR-3 [5] = tested on: OVCAR-3
# U251 = type: cell-based; details: U251, CNS Cancer
# CAKI-1 = test: NCI 60 Cell One-Dose Screen; type: cell-based, human; details: CAKI-1, Renal Cancer; single dose 10^-5 M
# UO-31 = test: NCI 60 Cell One-Dose Screen; type: cell-based, human; details: UO-31, Renal Cancer; single dose 10^-5 M
# DU-145 = type: cell-based; details: DU-145, Prostate Cancer
# HOP-62 = type: cell-based; details: HOP-62, Non-Small Cell Lung Cancer
# SW-620 = type: cell-based; details: SW-620, Colon Cancer
# OVCAR-5 [6] = type: cell-based; details: OVCAR-5, Ovarian Cancer
# HCC-2998 = type: cell-based; details: HCC-2998, Colon Cancer
# SF-268 [7] = test: NCI 60 Cell One-Dose Screen; type: cell-based, human; details: SF-268, CNS Cancer; single dose 10^-5 M
# OVCAR-5 [8] = test: NCI 60 Cell One-Dose Screen; type: cell-based, human; details: OVCAR-5, Ovarian Cancer; single dose 10^-5 M
# BT-549 = test: NCI 60 Cell One-Dose Screen; type: cell-based, human; details: BT-549, Breast Cancer; single dose 10^-5 M
# EKVX = type: cell-based; details: Non-Small Cell Lung Cancer
# HS 578T [9] = test: NCI 60 Cell One-Dose Screen; type: cell-based, human; details: Breast Cancer, single dose 10^-5 M
# HCT-116 = type: cell-based; details: HCT-116, Colon Cancer
# KM12 = type: cell-based; details: KM12, Colon Cancer
# HCT-15 [10] = type: cell-based; details: HCT-15, Colon Cancer
# SF-268 [11] = type: cell-based; details: SF-268, CNS Cancer
# 786-0 = type: cell-based; details: 786-0, Renal Cancer
# HS 578T [12] = type: cell-based; details: Breast Cancer
# OVCAR-4 = type: cell-based; details: OVCAR-4, Ovarian Cancer
# UACC-257 = test: NCI 60 Cell One-Dose Screen; type: cell-based, human; details: UACC-257, Melanoma; single dose 10^-5 M
# MOLT-4 = type: cell-based; details: MOLT-4, Leukemia
# [13] = Homo sapiens, read-out: LC50 (the source's name)
structure (smiles),measurement,setting,value
"NCC(=O)NS(=O)(=O)OC[C@H]1O[C@@H](n2cnc3c(N)ncnc32)[C@H](O)[C@@H]1O [GlySA, glycylsulfamoyladenosine]",GI50,SK-MEL-28; Homo sapiens,1950 nM
same,CC50,SK-MEL-28; [13],8.91 µM
same,LC50/GI50,SK-MEL-28,4.6
same,GI50,RXF 393; Homo sapiens,2140 nM
same,CC50,RXF 393; [13],8.32 µM
same,LC50/GI50,RXF 393,3.9
same,LC50/GI50,HT29 [1],>33.9
same,GI50,"HT29 [1]; Homo sapiens, HT-29",2950 nM
same,CC50,"HT29 [1]; Homo sapiens, HT-29, read-out: LC50 (the source's name)",> 100 µM
same,Growth inhibition count (%),HT29 [2],6.002%
same,Growth inhibition count (%),HCT-15 [3],11.42%
same,Growth inhibition count (%),HOP-92,17.26%
same,GI50,A549/ATCC; Homo sapiens,2340 nM
same,CC50,A549/ATCC; [13],19.1 µM
same,LC50/GI50,A549/ATCC,8.1
same,Growth inhibition count (%),OVCAR-3 [4],10.05%
same,Growth inhibition count (%),T-47D,7.656%
same,GI50,"OVCAR-3 [5]; Homo sapiens, OVCAR-3",2000 nM
same,CC50,"OVCAR-3 [5]; Homo sapiens, OVCAR-3, read-out: LC50 (μM)",10 µM
same,LC50/GI50,"OVCAR-3 [5]; OVCAR-3, Ovarian Cancer",5.0
same,GI50,"U251; Homo sapiens, U-251",550 nM
same,CC50,"U251; Homo sapiens, U-251, read-out: LC50 (the source's name)",5.75 µM
same,LC50/GI50,U251,10.5
same,Growth inhibition count (%),CAKI-1,5.11%
same,Growth inhibition count (%),UO-31,6.084%
same,LC50/GI50,DU-145,>144.5
same,GI50,DU-145; Homo sapiens,692 nM
same,LC50/GI50,HOP-62,>269.2
same,GI50,HOP-62; Homo sapiens,372 nM
same,CC50,HOP-62; [13],> 100 µM
same,GI50,SW-620; Homo sapiens,3.71 µM
same,CC50,SW-620; [13],> 100 µM
same,LC50/GI50,SW-620,>26.9
same,GI50,OVCAR-5 [6]; Homo sapiens,741 nM
same,CC50,OVCAR-5 [6]; [13],> 100 µM
same,LC50/GI50,OVCAR-5 [6],>134.9
same,LC50/GI50,HCC-2998,4.6
same,GI50,HCC-2998; Homo sapiens,2040 nM
same,CC50,HCC-2998; [13],9.33 µM
same,Growth inhibition count (%),SF-268 [7],3.776%
same,Growth inhibition count (%),OVCAR-5 [8],0.2916%
same,Growth inhibition count (%),BT-549,21.06%
same,GI50,EKVX; Homo sapiens,2570 nM
same,LC50/GI50,EKVX,>38.9
same,Growth inhibition count (%),HS 578T [9],16.07%
same,LC50/GI50,HCT-116,>31.6
same,GI50,HCT-116; Homo sapiens,3.16 µM
same,CC50,HCT-116; [13],> 100 µM
same,GI50,KM12; Homo sapiens,3.24 µM
same,LC50/GI50,KM12,>30.9
same,LC50/GI50,HCT-15 [10],27.5
same,GI50,HCT-15 [10]; Homo sapiens,2950 nM
same,CC50,HCT-15 [10]; [13],81.3 µM
same,GI50,SF-268 [11]; Homo sapiens,501 nM
same,LC50/GI50,SF-268 [11],>199.5
same,LC50/GI50,786-0,3.8
same,GI50,786-0; Homo sapiens,1780 nM
same,CC50,786-0; [13],6.76 µM
same,LC50/GI50,HS 578T [12],>34.7
same,GI50,HS 578T [12]; Homo sapiens,2880 nM
same,CC50,HS 578T [12]; [13],> 100 µM
same,GI50,OVCAR-4; Homo sapiens,389 nM
same,CC50,OVCAR-4; [13],24 µM
same,LC50/GI50,OVCAR-4,61.7
same,Growth inhibition count (%),UACC-257,27.43%
same,GI50,MOLT-4; Homo sapiens,2630 nM
same,CC50,MOLT-4; [13],> 100 µM
same,LC50/GI50,MOLT-4,>38.0
